We go through nine substances from patent US6492137B1, “Response element compositions and assays employing same” (The Salk Institute for Biological Studies, priority 1989, dated 2002).

Data set [1] deals with T1, TRβ (Homo sapiens, UniProt P10828).
T1 sequence (P10828 1-461): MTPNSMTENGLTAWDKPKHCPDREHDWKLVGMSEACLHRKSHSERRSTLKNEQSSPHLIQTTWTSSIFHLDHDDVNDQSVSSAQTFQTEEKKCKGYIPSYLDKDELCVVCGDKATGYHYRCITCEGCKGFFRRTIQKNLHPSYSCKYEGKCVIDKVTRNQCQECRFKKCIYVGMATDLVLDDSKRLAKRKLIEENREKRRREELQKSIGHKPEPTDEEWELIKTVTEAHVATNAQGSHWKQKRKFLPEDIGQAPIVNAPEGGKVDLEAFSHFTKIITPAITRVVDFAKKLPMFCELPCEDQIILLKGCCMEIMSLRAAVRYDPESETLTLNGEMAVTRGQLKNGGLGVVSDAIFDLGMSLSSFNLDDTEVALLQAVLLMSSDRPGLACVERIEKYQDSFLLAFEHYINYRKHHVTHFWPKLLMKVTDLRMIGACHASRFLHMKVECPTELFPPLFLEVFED
Nature of the data set: Gel retardation DNA-binding assay with TRβ-expressing COS cell extracts. Also on record: expressed in transfected cells; host or cells: COS cells (whole-cell extract). The settings on record: for competition for TRβ binding to 32P-labeled MHC-N: 50-fold excess of unlabeled oligonucleotide, COS cell extracts; for TRβ binding to labeled oligonucleotide probe: gel retardation, TRβ COS cell extract. The protocol:
For DNA binding assays, COS cells were cultured in DMEM with 10% calf bovine serum and transfected by the calcium phosphate method with 20 μg of the pCMX receptor expression plasmid for 6 hours followed by a glycerol shock. After incubating the transfected COS cells for another 48 hours, the cells were harvested to prepare extracts for the DNA binding assay, carried out as described by Damm et al., Nature 339: 593-597 (1989). The extracts were made in 20 mM HEPES (pH 7.4), 0.4 M KCl, 2 mM DTT and 20% glycerol. A similar method was employed to prepare a whole cell extract from F9 stem cells. For the binding, 5 μg (COS) or 10 μg (F9) of proteins was incubated on ice for 20 minutes, first in 20 mM HEPES, 80 mM KCl, 1 mM DTT, 0.1% NP40, 2.5 μg of poly dI/dC, and 10% glycerol (cold competitor oligonucleotides, when included, were added during this pre-incubation period). Then 40 fmole of ^32P-labeled oligonucleotide probe (1-2×10^5 cpm, prepared by filling-in reaction using Klenow polymerase in the presence of α-^32P-dCTP) was added to the reaction mixture, followed by incubation at room temperature for 30 minutes. The receptor-DNA complexes were resolved by electrophoresis through 5% polyacrylamide gel containing 5% glycerol at 6 V/cm at room temperature.
Oligonucleotides listed in FIG. 3 were used as a probe to test specific DNA-binding of the RARα and TRβ in a gel retardation assay.
Using the mobility shift assay, the DNA-binding capacity of extracts from COS cells expressing TRβ and RARα to these sequences was also tested.

Data set [2] addresses T1, TRβ. Nature of the data set: ΔSV-CAT reporter cotransfection assay in CV-1 cells with TRβ expression plasmid, ±T3. The data set is classed as cell-based. On the set-up: expressed in transfected cells; host or cells: CV-1 (monkey kidney). The settings on record: TRβ expression vector. The text has this:
Receptor expression plasmids used in the following cotransfection assays have been described previously (pRShTRβ [see Thompson, et al., Proc. Natl. Acad. Sci. U.S.A. 86: 3494-3498 (1989)]; pRShRARα [see Giguere, et al., Nature 330: 624-629 (1987)]; pRShRARβ and pRshRARγ [see Ishikawa, et al., Mol. Endocrinol, 4: 837-844 (1990)]; and pRShVDR, [Schule, et al., Cell 61: 497-504 (1990)]. A basal reporter plasmid ΔSV-CAT was constructed by replacing the TK promoter in TK-CAT [Damm, et al., Nature 339: 593-597 (1989)] with the SphI-HindIII fragment of the SV40 early promoter. All of the recombinant CAT reporter plasmids used herein harbor a single copy of the indicated oligonucleotides at the unique HindIII site upstream of the SV40 promoter. […] To improve production of receptor proteins in COS cells, a new eukaryotic expression vector pCMX was prepared by modifying the plasmid CDM8 [Seed, B., Nature 329: 840-842 (1987)]. The CDM8 was cut with MluI and StuI in order to release the DNA fragment encoding the CMV/T7 promoter, SV40 small t intron/poly A signal, polyoma virus enhancer/origin, and SV40 enhancer/origin. The resulting fragment was ligated to a larger fragment of PvuII-digested PUC19. An internal deletion was introduced between unique BamHI and BclI sites present in the DCM8 portion. The stuffer sequence flanked by XbaI sites was replaced with a synthetic polylinker coding for 5′-KpnI/Asp718-EcoRV-BamHI -MscI-NheI-3′, followed by a stretch of 5′-[…]-3′ (SEQ ID NO:48) which can function as a universal termination signal for protein translation. The coding sequence of the luciferase [de Wet, et al., Mol. Cell. Biol. 7: 725-737 (1987)] and human TRβ, RARα, and VDR was placed in the polylinker region of the pCMX, generating pCMX-LUC, Pcmx-Htrβ, pCMX-hRARα, and pCMX-hVDR, respectively. The translation start site of the RARα was modified to […] by attaching the synthetic linker encoding a consensus translation start signal [Hollenberg, et al., Cell 55: 899-906 (1988)].
(§1) For cotransfection assays, a monkey kidney cell line CV-1 was kept in Dulbecco's modified Eagle's medium (DMEM) supplemented with 10% charcoal-resin double split calf bovine serum. Transfections were performed via calcium-phosphate precipitation method as described by Umesono, et al. in Cell 57: 1139-1146 (1989), with 0.5 μg of a pRS receptor expression plasmid, 1.0 μg of a reporter CAT plasmid, 5 μg of pRAS-βGAL [Umesono, et al., Cell 57: 1139-1146 (1989)] as an internal control, and 8.5 μg of carrier plasmid pUC19. The cells were transfected for 8 hours; after washing the DNA precipitates, the cells were then incubated for an additional 36 hours with or without the ligand (T3, 100 nM; RA, 1 μM; 1,25-(OH)2 vitamin D3, 100 nM). Cell extracts were prepared for βGAL and CAT assays, as described by Umesono, et al., supra. Transfection of F9 teratocarcinoma cells was carried out employing a similar method except the cells were incubated for 12 hours in the presence of the DNA precipitates, and the RA was added at 1 μM for another 24 hours before harvesting the cells. 2, 5, and 4 μg of the reporter, pRAS-βGAL, and pUC19 were used, respectively.
Target hormone response elements described in FIG. 3 were synthesized as double-stranded oligonucleotides with an overhanging tetranucleotide (5′-agct-3′) at both ends. A single copy of these oligonucleotides was cloned at the unique HindIII site present in the basal promoter CAT construct ΔSV-CAT. Capitalized portions in the nucleotide sequences correspond to those found in the natural promoters except TREp and rGH21, which are synthetic. Bold letters indicate the “AGGTCA” motif and “X” denotes a nucleotide substitution from this motif.

The subject of data set [3] is F9 teratocarcinoma stem cells. Nature of the data set: CAT reporter transfection into RA responsive F9 teratocarcinoma stem cells. The data set is classed as cell-based, mouse. The settings on record: RA 1 μM, 24 hours; no transfected receptor. On the procedure:
as §1
Similarly, when the same set of reporters as in FIG. 4 were transfected into F9 cells, only MHC-R (5-nucleotide spacer) and TREp are potent RAREs. In contrast, its RARE antecedents (MHC-N, MHC+1, MHC-T) are inert.

With “M3: MHC-N with nucleotide substitutions in the proposed direct repeat motif (SEQ ID NO:17) (AGCTGGAGGTGACAGGAAAACAGCAAGCT; DNA, backbone not given here; double-stranded DNA response element with agct overhangs, cloned into reporter)”, the “competition for TRβ binding to 32P-labeled MHC-N” value in data set [1] was “did not”. The “T3 responsiveness (in words)” value in data set [2] is on record as “completely silent to T3”.

With “MHC-D: segment of the MHC sequence including an adjacent sequence; deletion from MHC-L (SEQ ID NO:13) (AGCTTGAGGTGACAGGAGGACAGCAGCT; DNA, backbone not given here; double-stranded DNA response element with agct overhangs, cloned into reporter)”, the “T3 responsiveness (in words)” value in data set [2] is recorded as “recovery of the full response”.

Regarding “MHC+1: MHC-N with half-site spacing increased by one nucleotide (SEQ ID NO:22) (AGCTGGAGGTGAACAGGAGGACAGCAAGCT; DNA, backbone not given here; double-stranded response element with agct overhangs, cloned into reporter plasmid)”, the “function as RARE in F9 cells” value in data set [3] is “inert”. Besides, the “competition for TRβ binding (mobility shift assay)” value in data set [1] (unlabeled competitor oligonucleotide, COS cells expressing TRβ) is given as “poor competitors”.

Regarding “M1: MHC-N with nucleotide substitutions in the proposed direct repeat motif (SEQ ID NO:15) (AGCTGGAAATGACAGGAGGACAGCAAGCT; DNA, backbone not given here; double-stranded DNA response element with agct overhangs, cloned into reporter)”, the “competition for TRβ binding to 32P-labeled MHC-N” value in data set [1] is on record as “did not”. Also, the “T3 responsiveness (in words)” value in data set [2] was “completely silent to T3”.

For “M2: MHC-N mutant with nucleotide substitutions in the presumed palindrome (SEQ ID NO:16) (AGCTGGAGGTGACGAAAGGACAGCAAGCT; DNA, backbone not given here; double-stranded DNA response element with agct overhangs, cloned into reporter)”, in data set [1], the “competition for TRβ binding to 32P-labeled MHC-N” value is “competed”. The “T3 responsiveness (in words)” value in data set [2] was “retains a T3 response though impaired”.

As to “rGH21: rat growth hormone gene sequence proposed as a candidate TRE (SEQ ID NO:20) (AGCTAGGTAAGATCAGGTAAGTAGCT; listed as DNA, chemistry not fully specified) [reference compound]”, in data set [1], the “TRβ binding to labeled oligonucleotide probe” value is “binds very poorly”. Moreover, the “T3 responsiveness (in words)” value in data set [2] is “fails to confer T3-dependent transactivation”.

Consider “MLV-LTR: thyroid response element found in the murine Maloney Leukemia Virus LTR (SEQ ID NO:19) (DNA AGCTCAGGGTCATTTCAGGTCCTTGAAGCT; listed as DNA, chemistry not given here) [reference compound]”, for which the “TRβ binding to labeled oligonucleotide probe” value in data set [1] is “high affinity”. In addition, the “T3 responsiveness (in words)” value in data set [2] is given as “confers T3 inducibility”.

Take “MHC-S: restricted region of MHC-L corresponding to the predicted palindrome (SEQ ID NO:12) (AGCTCTCTGGAGGTGACAGGAAGCT; listed as DNA, further chemistry not given here)”: the “T3 responsiveness (in words)” value in data set [2] is on record as “failed to confer T3 responsiveness”.

Regarding “MHC-L: wild-type MHC sequence encoding a TRE in the MHC gene promoter (SEQ ID NO:11) (AGCTCCTTGGCTCTGGAGGTGACAGGAGGACAGCAGCT; DNA, backbone not given here; double-stranded response element with agct overhangs, cloned into reporter plasmid)”, the “T3 responsiveness (in words)” value in data set [2] is “responsive to T3”.
